Results taken from PubChem BioAssay (NCI).
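48-hour exposure; five concentrations; linearly interpolated endpoints. At the GI50, growth is halved. Definition used: TGI = concentration required for complete inhibition of growth.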

Experiments:
Assay in all cases: inhibition of tumour cell growth, NCI panel, 48 h
786-0 renal = tested on: 786-0 renal
A498 renal = tested on: A498 renal
A549 NSCLC = tested on: A549 NSCLC
ACHN renal = tested on: ACHN renal
BT-549 breast = tested on: BT-549 breast
CAKI-1 renal = tested on: CAKI-1 renal
CCRF-CEM leukemia = tested on: CCRF-CEM leukemia
COLO 205 colon = tested on: COLO 205 colon
DU-145 prostate = tested on: DU-145 prostate
EKVX NSCLC = tested on: EKVX NSCLC
HCC-2998 colon = tested on: HCC-2998 colon
HCT-116 colon = tested on: HCT-116 colon
HCT-15 colon = tested on: HCT-15 colon
HL-60(TB) leukemia = tested on: HL-60(TB) leukemia
HOP-62 NSCLC = tested on: HOP-62 NSCLC
HOP-92 NSCLC = tested on: HOP-92 NSCLC
HS 578T breast = tested on: HS 578T breast
HT29 colon = tested on: HT29 colon
IGROV1 ovarian = tested on: IGROV1 ovarian
K-562 leukemia = tested on: K-562 leukemia
KM12 colon = tested on: KM12 colon
LOX IMVI melanoma = tested on: LOX IMVI melanoma
M14 melanoma = tested on: M14 melanoma
MALME-3M melanoma = tested on: MALME-3M melanoma
MCF7 breast = tested on: MCF7 breast
MDA-MB-231 breast = tested on: MDA-MB-231 breast
MDA-MB-435 = tested on: MDA-MB-435
MOLT-4 leukemia = tested on: MOLT-4 leukemia
NCI-H226 lung = tested on: NCI-H226 lung
NCI-H23 lung = tested on: NCI-H23 lung
NCI-H460 lung = tested on: NCI-H460 lung
NCI-H522 lung = tested on: NCI-H522 lung
NCI/ADR-RES ovarian = tested on: NCI/ADR-RES ovarian
OVCAR-3 ovarian = tested on: OVCAR-3 ovarian
OVCAR-4 ovarian = tested on: OVCAR-4 ovarian
OVCAR-5 ovarian = tested on: OVCAR-5 ovarian
OVCAR-8 ovarian = tested on: OVCAR-8 ovarian
PC-3 prostate = tested on: PC-3 prostate
RPMI-8226 leukemia = tested on: RPMI-8226 leukemia
RXF 393 renal = tested on: RXF 393 renal
SF-268 CNS = tested on: SF-268 CNS
SF-295 CNS = tested on: SF-295 CNS
SF-539 CNS = tested on: SF-539 CNS
SK-MEL-2 melanoma = tested on: SK-MEL-2 melanoma
SK-MEL-28 melanoma = tested on: SK-MEL-28 melanoma
SK-MEL-5 melanoma = tested on: SK-MEL-5 melanoma
SK-OV-3 ovarian = tested on: SK-OV-3 ovarian
SN12C renal = tested on: SN12C renal
SNB-19 CNS = tested on: SNB-19 CNS
SNB-75 CNS = tested on: SNB-75 CNS
SR leukemia = tested on: SR leukemia
SW-620 colon = tested on: SW-620 colon
T-47D breast = tested on: T-47D breast
TK-10 renal = tested on: TK-10 renal
U251 CNS = tested on: U251 CNS
UACC-257 melanoma = tested on: UACC-257 melanoma
UACC-62 melanoma = tested on: UACC-62 melanoma
UO-31 renal = tested on: UO-31 renal
MDA-N = tested on: MDA-N

Compound `COC(=O)C1(C2CC/C(C)=C/CC/C(C)=C/CC[C@@]3(C)O[C@@H]3C2)CC1` (stereo partly specified) has a GI50 (786-0 renal) of 35.5 µM, a TGI (786-0 renal) of over 70 µM and a GI50 (A498 renal) of over 100 µM. For the same compound, the TGI (A498 renal) was over 100 µM, the GI50 (A549 NSCLC) was 29 µM and the TGI (A549 NSCLC) was over 80.3 µM. It also gave a GI50 (ACHN renal) of over 41.3 µM, a TGI (ACHN renal) of over 62.2 µM and a GI50 (BT-549 breast) of over 100 µM. The TGI (BT-549 breast) was over 100 µM, the GI50 (CAKI-1 renal) was 32.1 µM and the TGI (CAKI-1 renal) was over 85 µM. The GI50 (CCRF-CEM leukemia) was 25.7 µM, the TGI (CCRF-CEM leukemia) was 65.3 µM and the GI50 (COLO 205 colon) was over 56.5 µM. It also gave a TGI (COLO 205 colon) of over 100 µM, a GI50 (DU-145 prostate) of 33.6 µM and a TGI (DU-145 prostate) of over 100 µM. It also gave a GI50 (EKVX NSCLC) of over 100 µM, a TGI (EKVX NSCLC) of over 100 µM and a TGI (HCC-2998 colon) of over 20.8 µM. The GI50 (HCT-116 colon) was 33 µM, the TGI (HCT-116 colon) was over 100 µM and the GI50 (HCT-15 colon) was over 66.7 µM. For the same compound, the TGI (HCT-15 colon) was over 100 µM, the GI50 (HL-60(TB) leukemia) was 25.2 µM and the TGI (HL-60(TB) leukemia) was over 83.5 µM. For the same compound, the GI50 (HOP-62 NSCLC) was 25.8 µM, the TGI (HOP-62 NSCLC) was 65.8 µM and the GI50 (HOP-92 NSCLC) was 27.3 µM. It also gave a TGI (HOP-92 NSCLC) of over 100 µM, a GI50 (HS 578T breast) of over 91.2 µM and a TGI (HS 578T breast) of over 100 µM. The GI50 (HT29 colon) was 68.1 µM, the TGI (HT29 colon) was over 100 µM and the GI50 (IGROV1 ovarian) was 30.3 µM. For the same compound, the TGI (IGROV1 ovarian) was over 72 µM, the GI50 (K-562 leukemia) was 29.1 µM and the TGI (K-562 leukemia) was 99.6 µM. For the same compound, the GI50 (KM12 colon) was 18.9 µM, the TGI (KM12 colon) was 43.5 µM and the GI50 (LOX IMVI melanoma) was 23.6 µM. For the same compound, the TGI (LOX IMVI melanoma) was over 60.5 µM, the GI50 (M14 melanoma) was 37.5 µM and the TGI (M14 melanoma) was over 72.2 µM. For the same compound, the GI50 (MALME-3M melanoma) was over 83.8 µM, the TGI (MALME-3M melanoma) was over 100 µM and the GI50 (MCF7 breast) was 51.1 µM. It also gave a TGI (MCF7 breast) of over 100 µM, a GI50 (MDA-MB-231 breast) of over 48.6 µM and a TGI (MDA-MB-231 breast) of over 74.7 µM. The GI50 (MDA-MB-435) was 32.1 µM, the TGI (MDA-MB-435) was 98.3 µM and the GI50 (MOLT-4 leukemia) was 29.3 µM. For the same compound, the TGI (MOLT-4 leukemia) was over 100 µM, the GI50 (NCI-H226 lung) was over 72.2 µM and the TGI (NCI-H226 lung) was over 100 µM. It also gave a GI50 (NCI-H23 lung) of 46.1 µM, a TGI (NCI-H23 lung) of over 100 µM and a GI50 (NCI-H460 lung) of 35.5 µM. The TGI (NCI-H460 lung) was over 100 µM, the GI50 (NCI-H522 lung) was 50.4 µM and the TGI (NCI-H522 lung) was over 100 µM. It also gave a GI50 (NCI/ADR-RES ovarian) of over 55 µM, a TGI (NCI/ADR-RES ovarian) of over 100 µM and a GI50 (OVCAR-3 ovarian) of 62.9 µM. It also gave a TGI (OVCAR-3 ovarian) of over 100 µM, a GI50 (OVCAR-4 ovarian) of over 100 µM and a TGI (OVCAR-4 ovarian) of over 100 µM. The GI50 (OVCAR-5 ovarian) was over 100 µM, the TGI (OVCAR-5 ovarian) was over 100 µM and the GI50 (OVCAR-8 ovarian) was over 44.3 µM. It also gave a TGI (OVCAR-8 ovarian) of over 65.1 µM, a GI50 (PC-3 prostate) of 36.5 µM and a TGI (PC-3 prostate) of over 100 µM. For the same compound, the GI50 (RPMI-8226 leukemia) was 16.9 µM, the TGI (RPMI-8226 leukemia) was 48.4 µM and the GI50 (RXF 393 renal) was over 38.2 µM. The TGI (RXF 393 renal) was over 100 µM, the GI50 (SF-268 CNS) was over 100 µM and the TGI (SF-268 CNS) was over 100 µM. The GI50 (SF-295 CNS) was over 60.4 µM, the TGI (SF-295 CNS) was over 100 µM and the GI50 (SF-539 CNS) was 35.2 µM. For the same compound, the TGI (SF-539 CNS) was over 69.2 µM, the GI50 (SK-MEL-2 melanoma) was over 100 µM and the TGI (SK-MEL-2 melanoma) was over 100 µM. It also gave a GI50 (SK-MEL-28 melanoma) of over 100 µM, a TGI (SK-MEL-28 melanoma) of over 100 µM and a GI50 (SK-MEL-5 melanoma) of 56.1 µM. It also gave a TGI (SK-MEL-5 melanoma) of over 100 µM, a GI50 (SK-OV-3 ovarian) of over 100 µM and a TGI (SK-OV-3 ovarian) of over 100 µM. The GI50 (SN12C renal) was over 100 µM, the TGI (SN12C renal) was over 100 µM and the GI50 (SNB-19 CNS) was over 100 µM. For the same compound, the TGI (SNB-19 CNS) was over 100 µM, the GI50 (SNB-75 CNS) was over 100 µM and the TGI (SNB-75 CNS) was over 100 µM. The GI50 (SR leukemia) was 12.4 µM, the TGI (SR leukemia) was over 51.9 µM and the GI50 (SW-620 colon) was 40 µM. It also gave a TGI (SW-620 colon) of over 100 µM, a GI50 (T-47D breast) of over 93 µM and a TGI (T-47D breast) of over 100 µM. For the same compound, the GI50 (TK-10 renal) was over 59.6 µM, the TGI (TK-10 renal) was over 100 µM and the GI50 (U251 CNS) was 39.1 µM. It also gave a TGI (U251 CNS) of over 100 µM, a GI50 (UACC-257 melanoma) of over 83.7 µM and a TGI (UACC-257 melanoma) of over 100 µM. For the same compound, the GI50 (UACC-62 melanoma) was over 100 µM, the TGI (UACC-62 melanoma) was over 100 µM and the GI50 (UO-31 renal) was 26.6 µM. The TGI (UO-31 renal) was over 56.3 µM.
In the case of `COC(=O)C1ON2C(C1C(=O)OC)C(C)(C)N(O)C2(C)C` (stereo unspecified), the TGI (A549 NSCLC) is reported as over 10 µM, the TGI (ACHN renal) is reported as over 10 µM and the TGI (CAKI-1 renal) is reported as over 10 µM. For the same compound, the TGI (COLO 205 colon) was over 10 µM, the TGI (DU-145 prostate) was over 10 µM and the TGI (EKVX NSCLC) was over 10 µM. It also gave a TGI (HCT-116 colon) of over 10 µM, a TGI (HCT-15 colon) of over 10 µM and a TGI (HOP-92 NSCLC) of over 10 µM. It also gave a TGI (HT29 colon) of over 10 µM, a TGI (IGROV1 ovarian) of over 10 µM and a TGI (KM12 colon) of over 10 µM. The TGI (M14 melanoma) was over 10 µM, the TGI (MDA-MB-231 breast) was over 10 µM and the TGI (MDA-MB-435) was over 10 µM. It also gave a TGI (MDA-N) of over 10 µM, a TGI (NCI-H226 lung) of over 10 µM and a TGI (NCI-H23 lung) of over 10 µM. For the same compound, the TGI (NCI/ADR-RES ovarian) was over 10 µM, the TGI (OVCAR-3 ovarian) was over 10 µM and the TGI (OVCAR-4 ovarian) was over 10 µM. It also gave a TGI (OVCAR-5 ovarian) of over 10 µM, a TGI (OVCAR-8 ovarian) of over 10 µM and a TGI (PC-3 prostate) of over 10 µM. The TGI (RXF 393 renal) was over 10 µM, the TGI (SF-268 CNS) was over 10 µM and the TGI (SF-295 CNS) was over 10 µM. The TGI (SF-539 CNS) was over 10 µM, the TGI (SK-MEL-28 melanoma) was over 10 µM and the TGI (SK-MEL-5 melanoma) was over 10 µM. The TGI (SN12C renal) was over 10 µM, the TGI (SNB-19 CNS) was over 10 µM and the TGI (SNB-75 CNS) was over 10 µM. The TGI (SW-620 colon) was over 10 µM, the TGI (TK-10 renal) was over 10 µM and the TGI (U251 CNS) was over 10 µM.
